Reference: US8933099B2, “Monocyclic pyridine derivative” (Eisai R&D Management Co., Ltd., priority 2013, dated 2015)

Tests used:
[1] = tested on: human endometrial cancer cell line MFE280 xenograft; test: Antitumor effect in MFE280 subcutaneous xenograft model in mice; assay type: in vivo; details: oral, once a day for 14 days, tumor volume last day
Excerpt: Human endometrial cancer cell line MFE280 (DSMZ Number ACC-410), which had been cultured in an RPMI-1640 medium containing 10% FBS, and penicillin and streptomycin, were adjusted to a concentration of 4.7×10^7 cells/mL with Hanks' Balanced Salt Solution (GIBCO 1124020) to prepare a cell suspension, and the suspension was mixed with […] (BD Biosciences, Cat#354234) in a ratio of 1:1 to prepare a cell suspension in a concentration of 2.4×10^7 cells/ml. The cell suspension was inoculated in a volume of 100 μL into a subcutaneous part of a right flank of nude mice, 7 weeks of age (BALB/cAJcl-nu/nu, female, Clea Japan Inc.). Thirty five days after cell inoculation, the shortest diameter and the longest diameter of a tumor in each mouse were measured by using an electronic digital caliper (Digimatic™ caliper, Mitutoyo Corporation), so as to calculate the volume of the tumor in accordance with the following calculation formula: Tumor volume(mm^3)=Longest diameter(mm)×Shortest diameter(mm)×Shortest diameter(mm)/2
On the basis of the volumes of tumors obtained on the fast day of administration, the nude mice were grouped such that averages of the tumor volumes were substantially equal among the groups. Each test substance was dissolved in DMSO, Tween 80 was added thereto to prepare a solution in a 10-fold concentration and the thus prepared solution was stored at the freezer before use. Immediately before the administration, the stock solution was diluted with a 5% glucose solution to obtain a final administration solution (in which a ratio in % among DMSO, Tween 80 and the 5% glucose solution was 3.5:6.5:90). Each evaluation sample was orally administered to test substance administration group at a volume of 0.4 mL per 20 g of body weight once a day continuously for 14 days, and in a control group, an administration solvent was orally administered under the same conditions. Incidentally, the experiment was conducted on groups each consisting of 5 mice.
With respect to each of the control group and test substance administration group, a ratio of the weight measured on the final day to the weight measured on the first day (relative body weight: RBW) was calculated. If a ratio of the RBW of the test substance administration group/the RBW of the control group is 0.9 or more, the corresponding test substance administration group was defined as a well-tolerated. In the test substance administration group thus defined as well-tolerated, a ratio of the tumor volume of the test substance-dosing group to the tumor volume of the control group obtained on the last day (TIC) (%) was calculated, and shown in Table 28.

[2] = tested on: cell line RT112/84 xenograft; test: Antitumor effect in RT112/84 subcutaneous xenograft model in mice; assay type: in vivo; details: oral, once a day for 14 days, tumor volume last day
Excerpt: Human […] cancer cell line RT112/84 (ECACC Number EC85061106-F0), which had been cultured in an RPMI-1640 medium containing 10% […], and penicillin and streptomycin, were adjusted to a concentration of 1×10^8 cells/mL with Hanks' Balanced Salt Solution (GIBCO 1424020) to prepare a cell suspension, and the suspension was mixed with […] (BD Biosciences, Cat/354234) in a ratio of 1:1 to prepare a cell suspension in a concentration of 5×10^7 cells/ml. The cell suspension was inoculated in a volume of 100 μL into a subcutaneous part of a right flank of nude mice, 7 weeks of age (BALB/cAJcl-nu/nu, female, Clea Japan Inc.). Ten days after cell inoculation, the shortest diameter and the longest diameter of a tumor in each mouse were measured by using an electronic digital caliper (Digimatic™ caliper, Mitutoyo Corporation), so as to calculate the volume of the tumor in accordance with the following calculation formula: Tumor volume(mm^3)=Longest diameter(mm)×Shortest diameter(mm)×Shortest diameter(mm)/2 […]
With respect to each of the control group and test substance administration group, a ratio of the weight measured on the final day to the weight measured on the first day (relative body weight: RBW) was calculated. […]

CNC(=O)n1ccc2cc(Oc3ccnc(NC(=O)c4ccc(C5CCN(CCO)CC5)cc4)c3)c(OCCOC)cc21 [Example 22, 5-((2-(4-(1-(2-Hydroxyethyl)piperidin-4-yl)benzamide)pyridin-4-yl)oxy)-6-(2-methoxyethoxy)-N-methyl-1H-indole-1-carboxamide]
T/C (%) ([1]; 6.25 mg/kg): 72% | T/C (%) ([1]; 12.5 mg/kg): 57% | T/C (%) ([1]; 25 mg/kg): 31% | T/C (%) ([1]; 50 mg/kg): 11% | T/C (%) ([2]; 25 mg/kg): 62% | T/C (%) ([2]; 50 mg/kg): 33%
